Several values for one entry are separate records, joined by “and”; a condition that tells them apart may be missing. Identical values can stand only once. Like-named read-outs stand apart in the source and are kept apart here.
Columns and labels:
[1] = Pharmacokinetics in cassette in male cynomolgus monkeys for Kp measurement; assay type: in vivo; conditions: cynomolgus monkey, 0.5 mg/kg, intravenous
Method: F.1 Test Animal: Cynomolgus Monkeys from Labcorp 8298417 Maintained at Labcorp-Madison
F.2 Pharmaceutical Formulation and Administration
Test compound was dissolved in the vehicle of 10% DMSO, 10% ethanol, 40% polyethylene glycol 300, and 40% propylene glycol to get 0.5 mg/mL test compound solution. The compound was administered by intravenous administration at a dose of 1 mL/kg. The intravenous dose was administered as a bolus injection followed by an approximately 2-hour infusion via an indwelling catheter in a saphenous or cephalic vein. Fasting was not required.
• Collection time: • PK for Plasma: Predose, 0.25, 1, 1.5 and 2 hours postdose (based on start of infusion) • PK for Whole Blood: 1.5 hour postdose • Anticogulant: K2EDTA • Volume: • PK for Plasma: Approximately 0.5 mL • PK for Whole Blood: Approximately 0.1 mL • Collection Site: Femoral vein; saphenous or cephalic vein

[2] = Hepatocyte stability assay, rat; assay type: in vitro ADME; conditions: Sprague-Dawley Rat
Method: BioreclamationIVT (Baltimore, MD) provided the cryopreserved hepatocytes, hepatocyte thawing (HT) medium, and Krebs-Henseleit buffer (KHB) medium. The stock solution concentration was 1 M in DMSO and was then diluted further in acetonitrile/water (1:1 v/v). All other chemicals were purchased from Sigma-Aldrich (St. Louis, MO) or Thermo Fisher Scientific (Waltham, MA).
The quench solution used to stop reactions in the hepatocyte incubations was comprised of 100% (v/v) acetonitrile. Internal Standard/Quench (IS/Q) solution used to stop reactions with the positive control also contained 200 nM Labetalol.
Metabolic Stability in Cryopreserved Hepatocytes: Test compounds, or the positive control metabolic substrate, was incubated in suspensions of cryopreserved hepatocytes at a final concentration of 1 μM. Vials containing cryopreserved hepatocytes were removed from liquid nitrogen and immediately immersed in a 37° C. water bath. The vials were swirled gently until the contents had thawed. They were then immediately emptied into 48 mL of pre-warmed thawing medium in a 50 mL conical tube. Cells remaining in the vial were re-suspended with 1.0 mL of pre-warmed thawing medium and added to the conical tube. The tube was capped and then gently inverted several times to re-suspend the hepatocytes. The cell suspension was centrifuged at 500×g for 10 minutes at room temperature and the supernatant discarded. The cell pellet was loosened by gently swirling the centrifuge tube. Non-supplemented KHB medium was added to obtain the appropriate target cell density. The viabilities of all cell preparations were ≥85%, assessed by Trypan blue dye exclusion.
For incubations, aliquots of hepatocyte suspension (250 μL containing a cell concentration of 2×10^6 cells/mL) were added to 250 μL of 2 μM substrate (test compound or positive control) in supplemented KHB in duplicate wells in a 24-well plate. Final concentration in the incubations were 1×10^6 cells/mL and 1 μM substrate. A cell-free control incubation (KHB only) was also included. The incubations were carried out with gentle shaking in a 37° C. incubator under a humid atmosphere of 95% air/5% CO2 (v/v). Aliquots (100 μL) were removed after 0, 1, 3, and 6 hours and added to 200 μL quenching solution. The samples were then placed on a shaker for 10 min followed by centrifugation at 3000×g for 20 min. The supernatant was transferred to a new plate and diluted with 100 μL of water to reduce the organic content and then placed on a shaker for 10 mins. Samples were injected and analyzed with methods described below.
Liquid Chromatography: Quantification of positive control and test compound was performed by analyte/internal standard peak area ratios (PAR) measured on a Thermo Scientific™ Q Exactive™ Hybrid Quadrupole-Orbitrap Mass Spectrometer MS/MS with an electrospray interface operating in positive ion mode. The mass spectrometer was coupled to a Dionex Ultimate® 3000 HPLC system. Samples (10 μL aliquots) were injected with a Leap Technologies HTC PAL autosampler. For positive control, the column used was a Thermo Scientific™ Hypersil GOLD™ HPLC column ([…], 50×2.1 mm). Mobile phase A consisted of 95% (v/v) water, 5% (v/v) acetonitrile, and contained 0.1% (v/v) formic acid (FA). Mobile phase B consisted of 95% (v/v) acetonitrile, 5% (v/v) water, and contained 0.1% (v/v) FA. Elution was achieved, at a flow rate of 0.5 mL/min, by a series of linear gradients: initial condition was 5% B at 0 min, isocratic for 20 seconds; then linear gradient to 95% B over 90 seconds, followed by isocratic for 60 seconds at 95% B, and re-equilibrated to initial conditions over 70 seconds.
Metabolic stabilities of positive control and test compound were determined by measuring the rates of disappearance of the parent with time by determining the % of parent remaining at time t (Ct) {Obach 1997}.
Data (% of parent remaining) were plotted on a semi-log scale and fitted using an exponential fit: […]

[3] = brain Kp = [brain]/[plasma], cyno, read-out: Cyno brain Kp
[4] = brain Kpu,u = Kp * (plasma free/rat brain free), read-out: Cyno brain Kpu,u

Row | Kp [1, 3] | Kp [1, 4] | Predicted Hepatocyte CL [2] | SMILES
1 | 0.99 | 0.16 | 18.7 mL/min/kg | Nc1nc2cnc(C(=O)N3CCC[C@@H]4Oc5cc(C(F)(F)F)cc(F)c5[C@@H]43)cc2n2cncc12 (single isomer, unassigned) [Fg-53]
2 | 0.95 | 0.12 | 15.5 mL/min/kg | Nc1nc2cnc(C(=O)N3CCC[C@@H]4Oc5cc(OC(F)(F)F)cc(F)c5[C@@H]43)cc2n2cncc12 (single isomer, unassigned) [Fg-55]
3 | 1.78 | 0.19 | 27.7 mL/min/kg and 20.7 mL/min/kg | Nc1nc2cc(F)c(C(=O)N3CCC[C@@H]4Oc5cc(C(F)(F)F)ccc5[C@@H]43)cc2n2cncc12 [Ff-104, (4-amino-7-fluoroimidazo[1,5-a]quinoxalin-8-yl)((4aS,9bS)-7-(trifluoromethyl)-3,4,4a,9b-tetrahydrobenzofuro[3,2-b]pyridin-1(2H)-yl)methanone]
4 | 0.76 | 0.1 | – | Nc1nc2cnc(C(=O)N3CCC[C@@H]4Oc5cc(C(F)(F)F)ccc5[C@@H]43)cc2n2cncc12 [Ff-110, (4-aminoimidazo[1,5-a]pyrido[3,4-e]pyrazin-8-yl)((4aS,9bS)-7-(trifluoromethyl)-3,4,4a,9b-tetrahydrobenzofuro[3,2-b]pyridin-1(2H)-yl)methanone]
5 | – | – | 16 mL/min/kg | Nc1nc2cnc(C(=O)N3CCC[C@@H]4Oc5cc(OC(F)(F)F)ccc5[C@@H]43)cc2n2cncc12 [Ff-341, (4-aminoimidazo[1,5-a]pyrido[3,4-e]pyrazin-8-yl)((4aS,9bS)-7-(trifluoromethoxy)-3,4,4a,9b-tetrahydrobenzofuro[3,2-b]pyridin-1(2H)-yl)methanone]

Second part, the compound before the results:

Row | SMILES | Kp [1, 3] | Kp [1, 4] | Predicted Hepatocyte CL [2]
6 | C[C@H]1CN(C(=O)c2cc3c(cc2F)nc(N)c2cncn23)[C@H]2c3ccc(C(F)(F)F)cc3C[C@H]2O1 (single isomer, unassigned) [Ff-81] | 0.96 | 0.13 | 18.3 mL/min/kg
7 | C[C@@H]1CN(C(=O)c2cc3c(cc2F)nc(N)c2cncn23)[C@H]2c3cc(F)c(OC(F)(F)F)cc3C[C@H]2O1 (single isomer, unassigned) [Ff-197] | 1.2 | 0.28 | –
8 | Nc1nc2ccc(C(=O)N3CCC[C@@H]4Oc5cc(C(F)(F)F)ccc5[C@@H]43)cc2n2cncc12 [Ff-111, (4-aminoimidazo[1,5-a]quinoxalin-8-yl)((4aS,9bS)-7-(trifluoromethyl)-3,4,4a,9b-tetrahydrobenzofuro[3,2-b]pyridin-1(2H)-yl)methanone] | 1.1 | 0.23 | 27.8 mL/min/kg
9 | Cc1ncc2c(N)nc3cnc(C(=O)N4CCC[C@@H]5Oc6cc(OC(F)(F)F)ccc6[C@@H]54)cc3n12 [Ff-340, (4-amino-1-methylimidazo[1,5-a]pyrido[3,4-e]pyrazin-8-yl)((4aS,9bS)-7-(trifluoromethoxy)-3,4,4a,9b-tetrahydrobenzofuro[3,2-b]pyridin-1(2H)-yl)methanone] | 1.1 | 0.32 | 19.8 mL/min/kg
10 | Cc1ncn2c1c(N)nc1cnc(C(=O)N3CCC[C@@H]4Oc5cc(C(F)(F)F)ccc5[C@@H]43)cc12 [Ff-499, (4-amino-3-methylimidazo[1,5-a]pyrido[3,4-e]pyrazin-8-yl)((4aS,9bS)-7-(trifluoromethyl)-3,4,4a,9b-tetrahydrobenzofuro[3,2-b]pyridin-1(2H)-yl)methanone] | 2.4 | 0.51 | 37.2 mL/min/kg

— US12448388B2, “PRMT5 inhibitors and uses thereof” (Gilead Sciences, Inc., priority 2023, dated 2025)
